Reference: patent US20230065953A1, “NOVEL HETEROARYL-TRIAZOLE COMPOUNDS AS PESTICIDES” (Bayer Aktiengesellschaft, priority 2019, published 2023)

Assays:
Format in all cases: in vivo
[1] = system: Rhipicephalus microplus larvae (strain Parkhurst, resistant against synthetic pyrethroids); experiment: Rhipicephalus (Boophilus) microplus in-vitro contact test, larval cattle tick; settings: 5 μg/cm^2 (=500 g/ha), after 48 hours, read-out: efficacy (larvae dead or moribund)
Procedure, shortened: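 After drying, 20-50 larvae were held per tube at 27° C., 85% relative humidity for 48 h, and efficacy was scored as % dead or moribund.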

[2] = system: adult engorged female ticks (Rhipicephalus microplus); experiment: Rhipicephalus (Boophilus) microplus injection test; settings: 168 h, 4 μg/animal, egg deposition after 7 days, read-out: efficacy (infertile eggs)
Method: Rhipicephalus (Boophilus) Microplus—Injection Test
(§1) Solvent: dimethyl sulfoxide
To produce a suitable preparation of active compound, 10 mg of active compound are dissolved in 0.5 mL solvent, and the concentrate is diluted with solvent to the desired concentration.
Five adult engorged female ticks (Rhipicephalus microplus) are injected with 1 μL compound solution into the abdomen. The ticks are transferred into replica plates and incubated in a climate chamber.
After 7 days egg deposition of fertile eggs is monitored. Eggs where fertility is not visible are stored in a climate chamber till hatching after about 42 days. An efficacy of 100% means all eggs are infertile; 0% means all eggs are fertile.

[3] = system: adult unfed cat fleas (Ctenocephalides felis); experiment: Ctenocephalides felis oral test; settings: 48 h
Method: Ctenocephalides felis—Oral Test
as §1
To produce a suitable preparation of active compound, 10 mg of active compound are dissolved in 0.5 mL solvent, and the concentrate is diluted with cattle blood to the desired concentration.
Approximately 20 adult unfed cat fleas (Ctenocephalides felis) are placed in flea chambers. The blood chamber, sealed with parafilm on the bottom, are filled with cattle blood supplied with compound solution and placed on the gauze covered top of the flea chamber, so that the fleas are able to suck the blood. The blood chamber is heated to 37° C. whereas the flea chamber is kept at room temperature.
After 2 days mortality in % is determined. 100% means all the fleas have been killed; 0% means none of the fleas have been killed.

[4] = system: adult brown dog ticks (Rhipicephalus sanguineus); experiment: Rhipicephalus sanguineus in-vitro contact test with adult brown dog ticks; settings: 5 μg/cm^2 (=500 g/ha), after 48 hours, read-out: efficacy (ticks dead or moribund)
Method: Rhipicephalus sanguineus—In-Vitro Contact Tests with Adult Brown Dog Ticks
(§2) 9 mg compound is solved in 1 mL acetone and diluted with acetone to the desired concentration. 250 μL of the test solution is filled in 25 mL glass test tubes and homogeneously distributed on the inner walls by rotation and tilting on a shaking device (2 h at 30 rpm). With a compound concentration of 900 ppm, an inner surface of 44.7 cm^2 and a homogeneous distribution, a dose of 5 μg/cm^2 is achieved.
(§3) After the solvent has evaporated, each test tube is filled with 5-10 adult brown dog ticks (Rhipicephalus sanguineus), closed with a perforated lid and incubated in a lying position at room temperature and relative humidity. After 48 hours efficacy is determined. The ticks are patted on the ground of the tubes and are incubated on a heating plate at 45-50° C. for at most 5 minutes. Immotile or uncoordinated moving ticks, which are not able to escape the heat by climbing upwards, are marked as dead or moribund.
An efficacy of 100% means all ticks are dead or moribund; 0% means no ticks are dead or moribund.

[5] = system: green peach aphid (Myzus persicae); experiment: Myzus persicae oral test; settings: 120 h
Method: Myzus persicae—oral test • Solvent: 100 parts by weight acetone
To produce a suitable preparation of active compound, 1 part by weight of active compound is mixed with the stated amount of solvent, and the concentrate is diluted with water to the desired concentration. 50 μL compound solution is filled in microtiter plates and 150 μL IPL41 insect medium (33%+15% sugar) is added to obtain a total volume of 200 μL per well. Afterwards the plates are sealed with parafilm through which a mixed population of the green peach aphid (Myzus persicae) can suck on the compound preparation.
After 5 days mortality in % is determined. 100% means all aphids have been killed and 0% means none of the aphids have been killed.

[6] = system: fall armyworm larvae (Spodoptera frugiperda); experiment: Spodoptera frugiperda spray test (maize leaf sections); settings: 168 h
Procedure, shortened: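 Maize leaf sections sprayed with compound in acetone/dimethylformamide, diluted in water with 1000 ppm alkylarylpolyglycol ether emulsifier. Dried sections infested with fall armyworm larvae. Mortality (%) scored after 7 days; 100% = all caterpillars killed.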

[7] = system: larvae of the banded cucumber beetle (Diabrotica balteata); experiment: Diabrotica balteata spray test; settings: 168 h, 100 g/ha (=32 μg/well), wheat seeds, after 7 days, read-out: efficacy (seedling growth)
Procedure, shortened: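 Wheat seeds germinated 1 day on agar were sprayed with compound in acetone/dimethylformamide with alkylarylpolyglycol ether emulsifier, diluted in emulsifier-containing water. Each unit then received 10-20 larvae, and % efficacy was scored after 7 days.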

[8] = system: adult cat fleas (Ctenocephalides felis); experiment: Ctenocephalides felis in-vitro contact test, adult cat flea; settings: 5 μg/cm^2 (=500 g/ha), after 48 hours
Method: Ctenocephalides felis—In-Vitro Contact Tests Adult Cat Flea
as §2
as §3, with “cat fleas (Ctenocephalides felis),” for “brown dog ticks (Rhipicephalus sanguineus),”, “fleas” for “ticks”, “fleas,” for “ticks,”
An efficacy of 100% means all fleas are dead or moribund; 0% means no fleas are dead or moribund.

[9] = system: adult mosquitoes Aedes aegypti strain MONHEIM; experiment: Aedes aegypti test (AEDSAE surface treatment & contact assay); settings: surface concentration 20 mg/m^2, 30 min exposure, 24 hours after contact, read-out: efficacy (mortality)
Method: Aedes aegypti test (AEDSAE surface treatment & contact assay) • Solvent: Aceton+2000 ppm rapeseed oil methyl ester (RME)
(§4) In order to produce a sufficient, active ingredient containing solution it is necessary to solve the test compound in the solvent-mix (acetone at 2 mg/ml/RME 2000 ppm). This solution is pipetted onto a glazed tile and after evaporation of the acetone, adult mosquitoes of the species Aedes aegypti strain MONHEIM are placed onto the dried surface. The exposure time is 30 minutes.
(§5) Mortality in percent (%) is determined 24 hours after contact of the insects to the treated surface. 100% mortality means that all tested insects are dead, whereas 0% means that no insect died.

[10] = system: adult flies Musca domestica strain WHO-N; experiment: Musca domestica test (MUSCDO surface treatment & contact assay); settings: 24 hours after contact, read-out: efficacy (mortality)
Method: Musca domestica Test (MUSCDO Surface Treatment & Contact Assay) • Solvent: Aceton+2000 ppm rapeseed oil methyl ester (RME)
as §4, with “flies” for “mosquitoes”, “Musca domestica” for “Aedes aegypti”, “WHO-N” for “MONHEIM”
as §5

[11] = system: green peach aphid (Myzus persicae); experiment: Myzus persicae spray test; settings: foliar, 120 h, Chinese cabbage leaf disks, after 5 days
Procedure, shortened: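 Chinese cabbage leaf discs infested with all instars of the aphid were sprayed with compound prepared in acetone/DMF and diluted in water containing 1000 ppm emulsifier. Mortality (%) was scored after 5 days, 100% meaning all aphids killed and 0% none.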

[12] = system: larvae of the southern green stink bug (Nezara viridula); experiment: Nezara viridula spray test; settings: in Hordeum vulgare, 96 h
Procedure, shortened: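 Barley plants sprayed with compound in acetone/dimethylformamide, diluted in water with 1000 ppm alkylarylpolyglycol ether emulsifier, then infested with Nezara viridula larvae. Percent mortality read after 4 days (100% = all killed, 0% = none).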

| SMILES | pest or weed control at 5 µg/cm2 [1] | pest or weed control at 0.004 mg [2] | mortality at 100 ppm [3] | pest or weed control at 5 µg/cm2, 500 g/ha [4] | mortality at 4 ppm [5] | mortality at 100 g/ha [6] | pest or weed control at 32 µg/disc, 100 g/ha [7] | efficacy (fleas dead or moribund) [8] | mortality at 20 mg/m2 [9] | mortality at 4 mg/m2 ([10]; surface concentration 4 mg/m^2, 30 min exposure) | mortality at 20 mg/m2 ([10]; surface concentration 20 mg/m^2, 30 min exposure) | mortality at 100 g/ha [11] | mortality at 500 g/ha [12] |
| --- | --- | --- | --- | --- | --- | --- | --- | --- | --- | --- | --- | --- | --- |
| COCCN(C)C(=O)c1cnc(-n2nc(C)nc2[C@H](C)NC(=O)c2cc(C(F)(F)F)cc(C(F)(F)F)c2)s1 [I-3] | 100% | 100% | 80% | 100% | 90% | 100% | – | – | – | – | – | – | – |
| Cc1nc([C@H](C)NC(=O)c2cc(C(F)(F)F)cc(C(F)(F)F)c2)n(-c2ncc(C(=O)N(C)C3CC3)s2)n1 [I-7] | 100% | 100% | 100% | 100% | 100% | 100% | 100% | – | – | – | – | – | – |
| Cc1nc([C@H](C)NC(=O)c2cc(C(F)(F)F)cc(C(F)(F)F)c2)n(-c2ncc(C(=O)N(C)CC(C)C)s2)n1 [I-8] | 100% | 100% | 100% | 100% | 100% | 100% | 100% | – | – | – | – | – | – |
| Cc1nc([C@H](C)NC(=O)c2cc(C(F)(F)F)cc(C(F)(F)F)c2)n(-c2ncc(C(=O)N(C)CC(F)(F)F)s2)n1 [I-11] | 100% | 100% | 100% | 100% | 100% | 100% | 100% | – | – | – | – | – | – |
| Cc1nc([C@H](C)NC(=O)c2cc(Cl)cc(Br)c2)n(-c2ncc(C#N)s2)n1 [I-12] | 100% | 100% | 100% | 100% | – | 100% | 100% | – | – | – | – | – | – |
| Cc1nc([C@H](C)NC(=O)c2cc(Br)cc(Br)c2)n(-c2ncc(C#N)s2)n1 [I-13] | 100% | 100% | 100% | 100% | – | 83% | 100% | – | – | – | – | – | – |
| Cc1nc([C@H](C)NC(=O)c2cc(Cl)cc(C(F)(F)C(F)(F)F)c2)n(-c2ncc(C#N)s2)n1 [I-19] | 100% | 100% | 100% | 80% | – | 100% | 100% | – | – | – | – | – | – |
| Cc1nc([C@H](C)NC(=O)c2cc(Cl)nc(C(F)(F)F)c2)n(-c2ncc(C#N)s2)n1 [I-20, 2-chloro-N-{(1S)-1-[1-(5-cyano-1,3-thiazol-2-yl)-3-methyl-1H-1,2,4-triazol-5-yl]ethyl}-6-(trifluoromethyl)isonicotinamide] | 100% | 100% | 100% | 100% | – | – | 100% | – | – | – | – | – | – |
| CC(NC(=O)c1cc(OC(F)(F)F)cc(C2CC2)c1)c1ncnn1-c1ncc(C#N)s1 (centres unmarked) [I-30] | 100% | 100% | 100% | 100% | 100% | 100% | 100% | – | – | – | – | – | – |
| C[C@H](NC(=O)c1cc(I)cc(OC(F)F)c1)c1ncnn1-c1ncc(C#N)s1 [I-38] | 100% | – | – | 80% | – | – | 100% | 90% | – | – | – | – | – |
| C[C@H](NC(=O)c1cc(Br)cc(OC(F)F)c1)c1ncnn1-c1ncc(C#N)s1 [I-39] | 90% | 100% | 100% | – | 100% | 100% | 100% | 80% | 80 to 100% | 90 to 100% | 80 to 100% | – | – |
| CNC(=O)c1cnc(-n2nc(C)nc2[C@H](C)NC(=O)c2cc(Cl)cc(C(F)(F)F)c2)s1 [I-69] | 80% | 100% | – | 80% | 100% | 100% | 100% | 90% | – | – | – | 90% | – |
| Cc1nc([C@H](C)NC(=O)c2cc(Br)cc(Br)c2)n(-c2ncc(C(=O)N(C)CC#N)s2)n1 [I-72] | 100% | – | – | 100% | 100% | 100% | 100% | 80% | – | – | – | – | – |
| Cc1nc([C@H](C)NC(=O)c2cc(Br)cc(OC(F)(F)F)c2)n(-c2ncc(C(=O)N(C)CC#N)s2)n1 [I-125] | 100% | – | – | 80% | – | 100% | 100% | 100% | – | – | – | 90% | 100% |
